In PubChem BioAssay AID248 (DTP/NCI, 2004):
“And” between values parts separate entries of the source, which are not always exact repeats. Equal values may be shown once. Toxic doses and inconclusive results are not listed. Cut-off read from the data, not from the text of the source: active = T/C of 150% or more; inactive = T/C below 125%.

System: L1210 leukemia ip in BDF1 mice, survival T/C
Assay: NCI In Vivo Anticancer Drug Screen. Data for tumor model L1210 Leukemia (intraperitoneal) in B6D2F1 (BDF1) mice
Conditions: endpoint: mean survival time, higher = longer survival
Summary of the method: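 Mice bearing the transplanted tumor received compound or vehicle. Survival of the treated group was divided by that of the vehicle-treated control group to give the ratio.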

[1] = dose: 100.0 mg/kg/injection, schedule: Q01DX001 (ip), vehicle: Klucel (hydroxypropylcellulose) (HPC)
[2] = dose: 200.0 mg/kg/injection, schedule: Q01DX001 (ip), vehicle: Klucel (hydroxypropylcellulose) (HPC)
[3] = dose: 400.0 mg/kg/injection, schedule: Q01DX001 (ip), vehicle: Klucel (hydroxypropylcellulose) (HPC)
[4] = dose: 50.0 mg/kg/injection, schedule: Q01DX009 (ip), vehicle: Klucel (hydroxypropylcellulose) (HPC)
[5] = dose: 100.0 mg/kg/injection, schedule: Q01DX009 (ip), vehicle: Klucel (hydroxypropylcellulose) (HPC)
[6] = dose: 200.0 mg/kg/injection, schedule: Q01DX009 (ip), vehicle: Klucel (hydroxypropylcellulose) (HPC)
[7] = dose: 100.0 mg/kg/injection, schedule: Q04DX003 (ip), vehicle: Klucel (hydroxypropylcellulose) (HPC)
[8] = dose: 200.0 mg/kg/injection, schedule: Q04DX003 (ip), vehicle: Klucel (hydroxypropylcellulose) (HPC)
[9] = dose: 400.0 mg/kg/injection, schedule: Q01DX009 (ip), vehicle: Klucel (hydroxypropylcellulose) (HPC)
[10] = dose: 400.0 mg/kg/injection, schedule: Q04DX003 (ip), vehicle: Klucel (hydroxypropylcellulose) (HPC)
[11] = dose: 100.0 mg/kg/injection, schedule: Q01DX001 (ip), vehicle: saline
[12] = dose: 200.0 mg/kg/injection, schedule: Q01DX001 (ip), vehicle: saline
[13] = dose: 400.0 mg/kg/injection, schedule: Q01DX001 (ip), vehicle: saline
[14] = dose: 100.0 mg/kg/injection, schedule: Q01DX009 (ip), vehicle: saline with Tween-80
[15] = dose: 100.0 mg/kg/injection, schedule: Q01DX009 (ip), vehicle: other
[16] = dose: 100.0 mg/kg/injection, schedule: Q04DX003 (ip), vehicle: saline
[17] = dose: 200.0 mg/kg/injection, schedule: Q04DX003 (ip), vehicle: saline

Measured: T/C

O=c1c(C(Cl)Cl)nc2ccccc2n1O
inactive: [1] 95 % of control | [2] 98 % of control | [3] 101 % of control

Nc1ncnc(N)c1[N+](=O)[O-]
inactive: dose: 125.0 mg/kg/injection, schedule: Q01DX Z (ip), vehicle: methylcellulose (MC) 88 % of control

CC(=O)Oc1cc2c3c(c1)CCCN3CCC2
inactive: dose: 1.25 mg/kg/injection, schedule: Q01DX009 (ip), vehicle: saline 101 % of control | dose: 2.5 mg/kg/injection, schedule: Q01DX009 (ip), vehicle: saline 106 % of control | dose: 5.0 mg/kg/injection, schedule: Q01DX009 (ip), vehicle: saline 98 % of control

C/C=C1/CN2C3CC1C1(C(=O)OC)C2CC2(c4ccccc4N(C)C32)C1O (configuration not stated)
inactive: [4] 94 % of control | [1] 105 % of control | [5] 98 % of control | [2] 97 % of control | [6] 96 % of control | [3] 93 % of control

ClC(c1ccccc1)C1(Cl)C=c2ccccc2=C1 (configuration not stated)
inactive: [5] 98 % of control | [7] 102 % of control | [6] 98 % of control | [8] 92 % of control | [9] 95 % of control | [10] 96 % of control

C=C(c1ccccc1)[P+](c1ccccc1)(c1ccccc1)c1ccccc1
inactive: dose: 15.0 mg/kg/injection, schedule: Q01DX001 (ip), vehicle: saline 109 % of control

C=CCNC(=S)N(C)Cc1ccccc1Cl
inactive: [5] 90 % of control | [6] 98 % of control

O=C(O)c1ccc(=O)oc1
inactive: dose: 25.0 mg/kg/injection, schedule: Q01DX009 (ip), vehicle: Klucel (hydroxypropylcellulose) (HPC) 100 % of control | [4] 87 % of control | [5] 90 % of control

O=c1c2ccccc2nnn1-c1ccc([N+](=O)[O-])cc1
inactive: [11] 97 % of control | [12] 94 % of control | [13] 95 % of control

C1CSC2(CCC(C3CCC4(CC3)SCCS4)CC2)S1 (configuration not stated)
inactive: dose: 75.0 mg/kg/injection, schedule: Q01DX009 (ip), vehicle: saline 92 % of control | [11] 88 % of control | dose: 150.0 mg/kg/injection, schedule: Q01DX009 (ip), vehicle: saline 97 % of control | [12] 91 % of control | dose: 300.0 mg/kg/injection, schedule: Q01DX009 (ip), vehicle: saline 87 % of control | [13] 93 % of control

Nc1c(Br)cc2c(c1Br)C(=O)c1ccccc1-2
inactive: dose: 100.0 mg/kg/injection, schedule: Q01DX001 (ip), vehicle: carboxymethylcellulose (CMC) 98 % of control | dose: 200.0 mg/kg/injection, schedule: Q01DX001 (ip), vehicle: carboxymethylcellulose (CMC) 109 % of control | dose: 400.0 mg/kg/injection, schedule: Q01DX001 (ip), vehicle: carboxymethylcellulose (CMC) 102 % of control

Cc1ccc(S(=O)(=O)Cl)cc1C(=O)O
inactive: dose: 12.5 mg/kg/injection, schedule: Q01DX001 (ip), vehicle: saline with Tween-80 92 % of control and 99 % of control | dose: 25.0 mg/kg/injection, schedule: Q01DX001 (ip), vehicle: saline with Tween-80 99 % of control and 87 % of control | dose: 25.0 mg/kg/injection, schedule: Q01DX009 (ip), vehicle: saline with Tween-80 102 % of control | dose: 25.0 mg/kg/injection, schedule: Q04DX003 (ip), vehicle: saline with Tween-80 103 % of control | dose: 50.0 mg/kg/injection, schedule: Q01DX009 (ip), vehicle: saline with Tween-80 93 % of control | dose: 50.0 mg/kg/injection, schedule: Q04DX002 (ip), vehicle: saline with Tween-80 96 % of control and 108 % of control | dose: 50.0 mg/kg/injection, schedule: Q04DX003 (ip), vehicle: saline with Tween-80 97 % of control | dose: 100.0 mg/kg/injection, schedule: Q01DX001 (ip), vehicle: saline with Tween-80 94 % of control and 95 % of control | [14] 96 % of control | dose: 100.0 mg/kg/injection, schedule: Q04DX002 (ip), vehicle: saline with Tween-80 104 % of control and 86 % of control and 90 % of control | dose: 100.0 mg/kg/injection, schedule: Q04DX003 (ip), vehicle: saline with Tween-80 98 % of control

CSc1ccc(NC(=O)Nc2c(C)cc(C)cc2C)cc1
inactive: dose: 25.0 mg/kg/injection, schedule: Q01DX009 (ip), vehicle: other 92 % of control | dose: 50.0 mg/kg/injection, schedule: Q01DX009 (ip), vehicle: other 93 % of control | [15] 102 % of control

CN(C)c1ccc(C(C[N+](=O)[O-])(c2ccc(N(C)C)cc2)c2ccc(N(C)C)cc2)cc1
inactive: [5] 93 % of control | [7] 103 % of control | [6] 100 % of control | [8] 93 % of control | [9] 97 % of control | [10] 90 % of control

Cc1cc(CN)c(C)cc1CN
inactive: dose: 50.0 mg/kg/injection, schedule: Q01DX009 (ip), vehicle: saline 96 % of control | dose: 100.0 mg/kg/injection, schedule: Q01DX009 (ip), vehicle: saline 95 % of control | [16] 103 % of control | dose: 200.0 mg/kg/injection, schedule: Q01DX009 (ip), vehicle: saline 86 % of control | [17] 97 % of control

Cc1cc2nc(N)[nH]c2cc1C
inactive: dose: 12.5 mg/kg/injection, schedule: Q04DX002 (ip), vehicle: saline + alcohol 96 % of control | dose: 25.0 mg/kg/injection, schedule: Q04DX002 (ip), vehicle: saline + alcohol 96 % of control | dose: 50.0 mg/kg/injection, schedule: Q04DX002 (ip), vehicle: saline + alcohol 100 % of control

Cc1cc(C)c([I+]c2c(C)cc(C)cc2C)c(C)c1
inactive: dose: 0.12 mg/kg/injection, schedule: Q01DX009 (ip), vehicle: saline 102 % of control | dose: 0.25 mg/kg/injection, schedule: Q01DX009 (ip), vehicle: saline 111 % of control | dose: 0.5 mg/kg/injection, schedule: Q01DX001 (ip), vehicle: saline 90 % of control | dose: 0.5 mg/kg/injection, schedule: Q01DX009 (ip), vehicle: saline 122 % of control | dose: 0.5 mg/kg/injection, schedule: Q01DX015 (ip), vehicle: saline 100 % of control | dose: 0.5 mg/kg/injection, schedule: Q04DX003 (ip), vehicle: acetone 111 % of control | dose: 1.0 mg/kg/injection, schedule: Q01DX001 (ip), vehicle: saline 101 % of control | dose: 1.0 mg/kg/injection, schedule: Q01DX015 (ip), vehicle: saline 96 % of control | dose: 2.0 mg/kg/injection, schedule: Q01DX001 (ip), vehicle: saline 92 % of control | dose: 2.0 mg/kg/injection, schedule: Q01DX015 (ip), vehicle: saline 102 % of control | dose: 4.0 mg/kg/injection, schedule: Q01DX015 (ip), vehicle: saline 103 % of control

O=C(/C=C/c1cccc2ccccc12)c1ccc(Cl)cc1
inactive: [7] 105 % of control | [8] 96 % of control | [10] 94 % of control

CCCCCCCCCCCCOC(=O)/C=C\C(=O)NC(N)=O
inactive: dose: 25.0 mg/kg/injection, schedule: Q04DX003 (ip), vehicle: Klucel (hydroxypropylcellulose) (HPC) 102 % of control | dose: 50.0 mg/kg/injection, schedule: Q04DX003 (ip), vehicle: Klucel (hydroxypropylcellulose) (HPC) 97 % of control | [7] 105 % of control and 91 % of control | dose: 150.0 mg/kg/injection, schedule: Q04DX003 (ip), vehicle: Klucel (hydroxypropylcellulose) (HPC) 96 % of control

CC(=O)Nc1ccc2c(c1)/C(=N/O)c1ccccc1-2
inactive: [16] 97 % of control | [17] 89 % of control | dose: 400.0 mg/kg/injection, schedule: Q04DX003 (ip), vehicle: saline 94 % of control

CCCOC(=O)C1OC12CCCCC2 (configuration not stated)
inactive: [14] 103 % of control | dose: 200.0 mg/kg/injection, schedule: Q01DX009 (ip), vehicle: saline with Tween-80 100 % of control | dose: 400.0 mg/kg/injection, schedule: Q01DX009 (ip), vehicle: saline with Tween-80 103 % of control

NC(=O)C1CC=CCC1C(=O)O (configuration not stated)
inactive: [15] 88 % of control | dose: 200.0 mg/kg/injection, schedule: Q01DX009 (ip), vehicle: other 100 % of control | dose: 400.0 mg/kg/injection, schedule: Q01DX009 (ip), vehicle: other 92 % of control
